From patent publication US20030216416A1, “Novel crystalline of n-[4-[2-(2-amino-4,7-dihydro-4oxo-3h-pyrrolo[2,3-d]pyrimidin-5-yl)ethyl]benzoyl]-l-glutamic acid and process therefor” (priority 2002, published 2003)

Key:
[1] = Stability study: total related substances of crystalline form lots on storage
[2] = Stability study: solvents (water) content of crystalline form lots on storage
[3] = 2.5 hydrate lots stored at 5° C.
[4] = accelerated conditions 30° C., 0 months
[5] = accelerated conditions 30° C., 1 month
[6] = accelerated conditions 30° C., 2 months
[7] = accelerated conditions 30° C., 3 months
[8] = accelerated conditions 30° C., 6 months
[9] = stored at 5° C., 0 months, lots A-C water and ethanol, lot D water only
[10] = heptahydrate lot stored at 5° C.
[11] = heptahydrate lot, 25° C./60% relative humidity and room temperature/uncontrolled humidity
[12] = accelerated conditions 25° C., 60% relative humidity

## Nc1nc2[nH]cc(CCc3ccc(C(=O)N[C@@H](CCC(=O)O)C(=O)O)cc3)c2c(=O)[nH]1 [Lot C, pemetrexed disodium]
[1]; [3]
  change in the percent total related substances over time: did increase somewhat over time
[1]; accelerated conditions 30° C.
  change in the percent total related substances over time: did change significantly over time
[1]; [4]
  Total Related Substances Results: 0.38% of Total
[1]; [5]
  Total Related Substances Results: 0.6% of Total
[1]; [6]
  Total Related Substances Results: 0.76% of Total
[1]; [7]
  Total Related Substances Results: 0.79% of Total
[1]; [8]
  Total Related Substances Results: 1.33% of Total
[1]; stored at 5° C., 0 months
  Total Related Substances Results: 0.38% of Total
[1]; stored at 5° C., 3 months
  Total Related Substances Results: 0.79% of Total
[1]; stored at 5° C., 6 months
  Total Related Substances Results: 0.79% of Total
[1]; stored at 5° C., 12 months
  Total Related Substances Results: 0.51% of Total
[1]; stored at 5° C., 18 months
  Total Related Substances Results: 0.43% of Total
[1]; stored at 5° C., 24 months
  Total Related Substances Results: 0.44% of Total
[2]; [4]
  Solvents Results: 8.8% of Total
[2]; [5]
  Solvents Results: 20.6% of Total
[2]; [6]
  Solvents Results: 19.3% of Total
[2]; [7]
  Solvents Results: 17.2% of Total
[2]; [8]
  Solvents Results: 8.9% of Total
[2]; [9]
  Solvents Results: 8.8% of Total
[2]; stored at 5° C., 3 months
  Solvents Results: 16.7% of Total
[2]; stored at 5° C., 6 months
  Solvents Results: 8.8% of Total
[2]; stored at 5° C., 12 months
  Solvents Results: 21.0% of Total
[2]; stored at 5° C., 18 months
  Solvents Results: 20.8% of Total
[2]; stored at 5° C., 24 months
  Solvents Results: 20.4% of Total

## Nc1nc2[nH]cc(CCc3ccc(C(=O)N[C@@H](CCC(=O)[O-])C(=O)[O-])cc3)c2c(=O)[nH]1.[Na+].[Na+] [Heptahydrate Lot, disodium N-[4-[2-(2-amino-4,7-dihydro-4-oxo-3H-pyrrolo[2,3-d]-pyrimidin-5-yl)ethyl]benzoyl]-L-glutamic acid salt]
[1]; 5 C., 0 mo.
  Total Related Substances Results: 0.41%
[1]; 5 C., 0.5 mo.
  Total Related Substances Results: 0.42%
[1]; 5 C., 1 mo.
  Total Related Substances Results: 0.43%
[1]; 5 C., 2 mo.
  Total Related Substances Results: 0.45%
[1]; 5 C., 3 mo.
  Total Related Substances Results: 0.42%
[1]; 5 C., 6 mo.
  Total Related Substances Results: 0.42%
[1]; 5 C., 9 mo.
  Total Related Substances Results: 0.40%
[1]; 5 C., 12 mo.
  Total Related Substances Results: 0.42%
[1]; 25 C./60% RH, 0 mo.
  Total Related Substances Results: 0.41%
[1]; 25 C./60% RH, 0.25 mo.
  Total Related Substances Results: 0.40%
[1]; 25 C./60% RH, 0.5 mo.
  Total Related Substances Results: 0.44%
[1]; 25 C./60% RH, 0.75 mo.
  Total Related Substances Results: 0.39%
[1]; 25 C./60% RH, 1 mo.
  Total Related Substances Results: 0.43%
[1]; 25 C./60% RH, 3 mo.
  Total Related Substances Results: 0.42%
[1]; 25 C./60% RH, 6 mo.
  Total Related Substances Results: 0.42%
[1]; 25 C./60% RH, 12 mo.
  Total Related Substances Results: 0.39%
[1]; RT/uncontrolled, 0 mo.
  Total Related Substances Results: 0.41%
[1]; RT/uncontrolled, 0.25 mo.
  Total Related Substances Results: 0.40%
[1]; RT/uncontrolled, 0.5 mo.
  Total Related Substances Results: 0.43%
[1]; RT/uncontrolled, 0.75 mo.
  Total Related Substances Results: 0.41%
[1]; RT/uncontrolled, 1 mo.
  Total Related Substances Results: 0.43%
[1]; RT/uncontrolled, 2 mo.
  Total Related Substances Results: 0.44%
[1]; RT/uncontrolled, 3 mo.
  Total Related Substances Results: 0.42%
[1]; [10]
  change in the percent total related substances over time: did not change significantly over time
[1]; heptahydrate lot stored at accelerated conditions
  change in the percent total related substances over time: did not change significantly over time
[2]; 5° C., time 0
  Solvents (Water) Results: 21.0%
[2]; 5° C., time 0.5
  Solvents (Water) Results: 21.0%
[2]; 5° C., time 1
  Solvents (Water) Results: 20.6%
[2]; 5° C., time 2
  Solvents (Water) Results: 21.1%
[2]; 5° C., time 3
  Solvents (Water) Results: 21.3%
[2]; 5° C., time 6
  Solvents (Water) Results: 21.1%
[2]; 5° C., time 9
  Solvents (Water) Results: 21.1%
[2]; 5° C., time 12
  Solvents (Water) Results: 21.9%
[2]; 25° C./60% RH, time 0
  Solvents (Water) Results: 21.0%
[2]; 25° C./60% RH, time 0.25
  Solvents (Water) Results: 21.1%
[2]; 25° C./60% RH, time 0.5
  Solvents (Water) Results: 21.1%
[2]; 25° C./60% RH, time 0.75
  Solvents (Water) Results: 20.1%
[2]; 25° C./60% RH, time 1
  Solvents (Water) Results: 20.1%
[2]; 25° C./60% RH, time 3
  Solvents (Water) Results: 20.7%
[2]; 25° C./60% RH, time 6
  Solvents (Water) Results: 21.3%
[2]; 25° C./60% RH, time 12
  Solvents (Water) Results: 21.7%
[2]; RT/uncontrolled RH, time 0
  Solvents (Water) Results: 21.0%
[2]; RT/uncontrolled RH, time 0.25
  Solvents (Water) Results: 21.3%
[2]; RT/uncontrolled RH, time 0.5
  Solvents (Water) Results: 20.8%
[2]; RT/uncontrolled RH, time 0.75
  Solvents (Water) Results: 20.6%
[2]; RT/uncontrolled RH, time 1
  Solvents (Water) Results: 20.6%
[2]; RT/uncontrolled RH, time 2
  Solvents (Water) Results: 21.1%
[2]; RT/uncontrolled RH, time 3
  Solvents (Water) Results: 21.1%
[2]; [10]
  change in water content over time: does not change significantly over time
  water content: approximately 21%
[2]; [11]
  change in water content over time: does not change significantly over time
  water content: approximately 21%

## Nc1nc2[nH]cc(CCc3ccc(C(=O)N[C@@H](CCC(=O)O)C(=O)O)cc3)c2c(=O)[nH]1 [Lot D, pemetrexed disodium]
[1]; [3]
  change in the percent total related substances over time: did not change significantly over time
[1]; [12]
  change in the percent total related substances over time: did not increase somewhat over time
[1]; accelerated conditions 25° C., 60% relative humidity, 0 months
  Total Related Substances Results: 0.31% of Total
[1]; accelerated conditions 25° C., 60% relative humidity, 1 month
  Total Related Substances Results: 0.31% of Total
[1]; accelerated conditions 25° C., 60% relative humidity, 2 months
  Total Related Substances Results: 0.45% of Total
[1]; accelerated conditions 25° C., 60% relative humidity, 3 months
  Total Related Substances Results: 0.40% of Total
[1]; accelerated conditions 25° C., 60% relative humidity, 6 months
  Total Related Substances Results: 0.32% of Total
[1]; stored at 5° C., 0 months
  Total Related Substances Results: 0.31% of Total
[1]; stored at 5° C., 3 months
  Total Related Substances Results: 0.35% of Total
[1]; stored at 5° C., 6 months
  Total Related Substances Results: 0.33% of Total
[1]; stored at 5° C., 9 months
  Total Related Substances Results: 0.42% of Total
[1]; stored at 5° C., 12 months
  Total Related Substances Results: 0.24% of Total
[2]; [12]
  change in water content over time: shows an increase in water content to the heptahydrate form
[2]; accelerated conditions 25° C., 60% relative humidity, 0 months, water only
  Solvents Results: 8.5% of Total
[2]; accelerated conditions 25° C., 60% relative humidity, 1 month, water only
  Solvents Results: 14.0% of Total
[2]; accelerated conditions 25° C., 60% relative humidity, 2 months, water only
  Solvents Results: 20.5% of Total
[2]; accelerated conditions 25° C., 60% relative humidity, 3 months, water only
  Solvents Results: 20.8% of Total
[2]; accelerated conditions 25° C., 60% relative humidity, 6 months, water only
  Solvents Results: 21.2% of Total
[2]; [9]
  Solvents Results: 8.5% of Total
[2]; stored at 5° C., 3 months
  Solvents Results: 14.0% of Total
[2]; stored at 5° C., 6 months
  Solvents Results: 18.2% of Total
[2]; stored at 5° C., 9 months
  Solvents Results: 21.1% of Total
[2]; stored at 5° C., 12 months
  Solvents Results: 21.7% of Total

## Nc1nc2[nH]cc(CCc3ccc(C(=O)N[C@@H](CCC(=O)O)C(=O)O)cc3)c2c(=O)[nH]1 [Lot B, pemetrexed disodium]
[1]; [3]
  change in the percent total related substances over time: did not change significantly over time
[1]; accelerated conditions 30° C.
  change in the percent total related substances over time: did change significantly over time
[1]; [4]
  Total Related Substances Results: 0.4% of Total
[1]; [5]
  Total Related Substances Results: 0.4% of Total
[1]; [6]
  Total Related Substances Results: 0.7% of Total
[1]; [7]
  Total Related Substances Results: 0.6% of Total
[1]; [8]
  Total Related Substances Results: 1.2% of Total
[1]; stored at 5° C., 0 months
  Total Related Substances Results: 0.4% of Total
[1]; stored at 5° C., 3 months
  Total Related Substances Results: 0.3% of Total
[1]; stored at 5° C., 6 months
  Total Related Substances Results: 0.5% of Total
[1]; stored at 5° C., 12 months
  Total Related Substances Results: 0.4% of Total
[2]; [4]
  Solvents Results: 11.0% of Total
[2]; [5]
  Solvents Results: 15.5% of Total
[2]; [6]
  Solvents Results: 12.9% of Total
[2]; [7]
  Solvents Results: 11.5% of Total
[2]; [8]
  Solvents Results: 11.2% of Total
[2]; [9]
  Solvents Results: 11.0% of Total
[2]; stored at 5° C., 3 months
  Solvents Results: 21.0% of Total
[2]; stored at 5° C., 6 months
  Solvents Results: 21.1% of Total
[2]; stored at 5° C., 12 months
  Solvents Results: 21.0% of Total
